Laboratory results from patent US5187305A, “S-nitroso-N-alkonoylpenicillamines” (Glaxo Inc., priority 1990, dated 1993).

Experiments:
RAT AORTA = test: Aorta Vasodilation Assay, rat aorta rings (endothelium removed, phenylephrine-contracted); parameters: species or system male Sprague-Dawley rats; settings: 20% O2, without methylene blue; for RELATIVE POTENCY: compared with nitroprusside; for IC50: read-out: IC50 (relaxation)
From the text: (§1) The thoracic aortas removed from euthanized male Sprague-Dawley rats (200-300 g) and male New Zealand, white rabbits (1.5-3.0 kg) are cleaned of adherent connective tissue and cut into rings 3 to 5 mm in length. Endothelium is removed by rolling the rings on moist filter paper. Rings are suspended in an organ chamber containing a physiological salt solution of (mM): NaCl, 118.4; KCl, 4.7; MgSO4.H2 O, 1.2; CaCl2.2H2 O, 2.5; KH2 PO4, 1.2; NaHCO3, 25.0; and dextrose, 11.1. The bathing solution is maintained at 37° C. and half of the tissues are aerated with 95% O2 /5% CO2 and half are aerated with 20% O2 /5% CO2 /75% N2. Tissues are mounted to isometric force displacement transducers and responses are recorded on a polygraph.
(§2) All rings are gradually stretched (over a 120 min. period) to a basal resting tension of 2 g (rat) and 4 g (rabbit), which is maintained throughout the assay. During the basal tension adjustment period, the rings are exposed to KCl (40 mM) two to three times to verify tissue contractility. During this period, the effectiveness of endothelium removal is confirmed by the absence of the characteristic relaxation seen with acetylcholine (1×10^-6 M) in endothelium-intact (but not endothelium-removed) rings contracted with phenylephrine (1×10^-7 M).
(§3) Methylene blue (1×10^-5 M) is added to half of the tissues aerated at 20% O2 and 95% O2 to inhibit basal cGMP accumulation. Phenylephrine (1×10^-7 M) is then added and the rings are allowed to obtain a stable contractile response after which time, SOD (100 U/mL) is added to the tissues. The test compound is then added in a cumulative fashion. After the stabilization of the response to the last concentration of the test compound, sodium nitroprusside (1×10^-4 M) is added to induce complete relaxation.

RABBIT AORTA = test: Aorta Vasodilation Assay, rabbit aorta rings (endothelium removed, phenylephrine-contracted); parameters: species or system male New Zealand white rabbits; settings: 20% O2, without methylene blue; for RELATIVE POTENCY: compared with nitroprusside; for IC50: Oryctolagus cuniculus, read-out: IC50 (relaxation)
From the text: as §1, §2, §3

[1] = orally (including sublingually), rectally, vaginally, nasally or transdermally; cited from earlier work
[2] = among nitrosothiols; cited from earlier work
[3] = compared with glyceryl trinitrate; cited from earlier work

SMILES	RELATIVE POTENCY (RAT AORTA)	IC50 (RAT AORTA) [nM]	RELATIVE POTENCY (RABBIT AORTA)	IC50 (RABBIT AORTA) [nM]	Absorption [1]	Stability [2]	Tolerance [3]
CC(=O)N[C@@H](C(=O)Oc1ccccc1)C(C)(C)SN=O [(I), R^1 = PHENYL R^2 = METHYL, N-Acetyl-3-(nitrosothio)-D-valine phenyl ester]	3.04	7.6	3.25	65			
O=[N+]([O-])OCC(CO[N+](=O)[O-])O[N+](=O)[O-] [NITROGLYCERIN, glyceryl trinitrate]	3.76	9.4	1.15	23			
CC(=O)N[C@@H](C(=O)O)C(C)(C)SN=O [SNAP, N-acetyl-3-(nitrosothio)-D-valine]	56	140	8.0	160	poorly absorbed by these routes	one of the most stable nitrosothiols known	much less of a problem than tolerance of gyceryl trinitrate
